# Reference: patent US9714245B2, “Carboline compounds usable in the treatment of neurodegenerative diseases” (ALZPROTECT, priority 2013, dated 2017)
# Columns and labels:
# sAPPα = assay: Soluble APPα quantification (ELISA); format: cell-based, Human; settings: 24 h, control considered as 100
# Method: Soluble APPα Quantification
# Human neuroblastoma cell line SKNSH-SYSY APP′ was cultured in Dulbecco's modified Eagle medium (Invitrogen) supplemented with 10% fetal calf serum (PAA), 2 mM L-glutamine (Invitrogen), 1 mM non-essential amino acids (Invitrogen), 50 units/ml penicillin/streptomycin (Invitrogen), and 200 μg G418=geneticin (Invitrogen) (selection for cell expressing APP) in a 5% CO2 humidified incubator at 37° C. Cells were counted and seed at 400000 cells/well into a 12-wells plate for 24 h. The day after, cells were treated with 700 μL/well of drug at 0.3; 1; 3 and 10 μM and incubated for 24 h in a 5% CO2 incubator at 37° C. After treatment, culture medium samples were collected and stored at −80° C. until analysis. Samples corresponding to the 1 and 10 μM treatment were centrifuged 1500 rpm for 5 min at 4° C. sAPPα quantification by ELISA was done with Human sAPPα Assay Kit-IBL (Cat#27734) in accordance with manufacturer's protocol. Samples were diluted at 1:150 in the diluent buffer provided in the kit. Each sample was loaded in duplicate onto the 96 well-plate. Results are expressed in ng/ml and then compared to control conditions (considered as 100 in arbitrary units) and are presented for two concentrations of the drug: 1 and 10 μM.
# [1] = Cytotoxicity evaluation (MTS assay); format: cell-based, Human; settings: human, SY5Y-APPWT neuroblastoma cells (expressing APP); SY5Y-APPWT cells, 24 h treatment, MTS
# Method: Human neuroblastoma cell line SY5Y-APP^WT was used to assess the cytotoxic effects of each compound. SY5Y-APP^WT cells were seeded at 20000 cells/well onto 96-well plates and were cultured in Dulbecco's modified Eagle medium (DMEM, Invitrogen) supplemented with 10% fetal calf serum (PAA), 2 mM L-glutamine (Invitrogen), 1 mM non-essential amino acids (Invitrogen), 50 units/ml penicillin/streptomycin (Invitrogen), and 200 μg G418=geneticin (Invitrogen) (selection for cells expressing APP) in a 5% CO2 humidified incubator at 37° C. After 24 h, the cells were washed and incubated with the compound at 0.1; 0.3; 1; 3; 10; 30 and 100 μM or with DMSO as control diluted in the same culture medium at 37° C. in 5% CO2. After 24 h of treatment, cytotoxicity was determined by using colorimetric MTS assay (CellTiter 96® Aqueous One Solution Cell Proliferation Assay-MTS Promega) according to the protocol of the manufacturer. Absorbance was read at 490 nm and results were expressed as % from control condition considered as 100%.
# CTFα = assay: In vivo acute treatment, CTFα in brain tissue; design: species or system C57Bl6 mice; settings: acute p.o. 24 h
# Method: Female C57Bl6 mice of 4 month-old were treated p.o. (gavage) with either vehicle (control) or drug at 3; 6; 12.5 and 25 mg/kg (n=6 per group) for 24 h. The product was administered with a disposable Rodent Feeding Tube ECIMED Ref#V0104030 (4 mm×30 mm). After 24 h, mice were sacrificed and their troncal blood was collected and stored at 4° C. Brains were immediately removed to dissect the Frontal Cortex, the Cortex around the Hippocampus and the Hippocampus. These areas were stored at −80° C. until use. Blood was then centrifuged at 2100×g for 5 min. Resulting plasma was used to quantify the circulating drug and brain tissues were used for biochemical determinations (PFC: prefrontal cortex and HIP: hippocampus).
# secreted Aβ1-42 = assay: Aβ1-42 secretion by APP-transfected neuroblastoma cells (ELISA); format: cell-based; settings: Homo sapiens, Neuroblastoma cell; SKNSH-SYSY APPWT cells; concentration decreasing secreted Aβ1-42 to 50% of basal amount
# Method: (§1) Cell Cultures and Transfections to Test Activity on Aβ1-40 and Aβ1-42 Secretion
# (§2) Human neuroblastoma cell line SKNSH-SYSY (ATCC® Catalog No. CRL-2266™), HEK (ATCC® CRL-1573™) and COS-1 (ATCC® CRL-1650™) cells were maintained in Dulbecco's modified Eagle medium (DMEM, GIBCO BRL) supplemented with 10% fetal calf serum, 2 mM L-glutamine, 1 mM non-essential amino acids, 50 units/ml penicillin/streptomycin (Invitrogen, France) in a 5% CO2 humidified incubator at 37° C. APP695 cDNA was subcloned into eukaryotic expression vector pcDNA3 (Invitrogen), allowing for a G418 (Invitrogen) selection of clones. This APP cDNA coding for the 695 amino acid long isoform was transfected into SKNSH-SYSY cells using the ethyleneimine polymer ExGen 500 (Euromedex) according to the manufacturer's instructions. The cells expressing APP (SKNSH-SYSY APP^WT) were selected by the addition of 200 μg/ml G418 in the cell medium. To quantify AR which released in the cell culture medium, the collected medium was spun at 200×g to eliminate the cell debris. The concentrations of secreted Aâ1-40 and Aβ1-42 were determined using the Human Aβ (1-40) Assay Kit (IBL) or the INNOTEST™ beta-Amyloid (1-42) ELISA Kit (Innogenetics), according to manufacturer's instructions. The results were expressed as IC50, i.e. the concentration able to decrease to 50% the basal amount of secreted Aβ peptide 1-40 and 1-42.
# secreted Aβ1-40 = assay: Aβ1-40 secretion by APP-transfected neuroblastoma cells (ELISA); format: cell-based; settings: Homo sapiens, Neuroblastoma cell; SKNSH-SYSY APPWT cells; concentration decreasing secreted Aβ1-40 to 50% of basal amount
# Method: as §1, §2
# [2] = molecular target: T1, HIS-tagged valosin-containing protein/p97 (VCP/p97) (Homo sapiens, UniProt P55072); assay: VCP interaction assay (competition with biotinylated probe 4.7); format: binding; settings: compound 60 μM against biotinylated probe 4.7 20 μM
# T1 construct: purchased TebuBio
# Method: Physical interaction between HIS-tagged valosin-containing protein/p97 (VCP/p97) (TebuBio) and biotinylated probe 4.7 was investigated by Enzyme-Linked Assay (ELA) based on HIS-Select® High Sensitivity Nickel coated plates, used following manufacturer's recommendations (Sigma Aldrich). Other chemical compounds were tested in competition with the biotinylated probe 4.7 in this system. Briefly, nickel beads were incubated overnight at 4° C. with 2% casein blocking solution. After a three-time rinse with wash buffer (0.05% Tween20 in phosphate buffer saline), HIS-tagged VCP/p97 protein (5 μg/ml in PBS) was incubated with nickel beads for 90 min at 25° C. Then, the plate was washed three times. Chemical compounds (60 μM) were incubated 10 min at 25° C. before addition of biotinylated probe 4.7 (20 μM) 30 min at 25° C. After five washes, streptavidin-peroxidase (2 μg/ml) was added during 1 h at 25° C., followed by the peroxidase substrate addition 30 min at RT. Reaction was stopped with 0.5M H2SO4 solution and the optical density was read at 450 nm using a microplate reader (VICTOR X4 Wallac, 2030-0040, PerkinElmer). Competition efficiency was quantified by the loss of signal compared to the control condition.
# T1 sequence (P55072 whole entry): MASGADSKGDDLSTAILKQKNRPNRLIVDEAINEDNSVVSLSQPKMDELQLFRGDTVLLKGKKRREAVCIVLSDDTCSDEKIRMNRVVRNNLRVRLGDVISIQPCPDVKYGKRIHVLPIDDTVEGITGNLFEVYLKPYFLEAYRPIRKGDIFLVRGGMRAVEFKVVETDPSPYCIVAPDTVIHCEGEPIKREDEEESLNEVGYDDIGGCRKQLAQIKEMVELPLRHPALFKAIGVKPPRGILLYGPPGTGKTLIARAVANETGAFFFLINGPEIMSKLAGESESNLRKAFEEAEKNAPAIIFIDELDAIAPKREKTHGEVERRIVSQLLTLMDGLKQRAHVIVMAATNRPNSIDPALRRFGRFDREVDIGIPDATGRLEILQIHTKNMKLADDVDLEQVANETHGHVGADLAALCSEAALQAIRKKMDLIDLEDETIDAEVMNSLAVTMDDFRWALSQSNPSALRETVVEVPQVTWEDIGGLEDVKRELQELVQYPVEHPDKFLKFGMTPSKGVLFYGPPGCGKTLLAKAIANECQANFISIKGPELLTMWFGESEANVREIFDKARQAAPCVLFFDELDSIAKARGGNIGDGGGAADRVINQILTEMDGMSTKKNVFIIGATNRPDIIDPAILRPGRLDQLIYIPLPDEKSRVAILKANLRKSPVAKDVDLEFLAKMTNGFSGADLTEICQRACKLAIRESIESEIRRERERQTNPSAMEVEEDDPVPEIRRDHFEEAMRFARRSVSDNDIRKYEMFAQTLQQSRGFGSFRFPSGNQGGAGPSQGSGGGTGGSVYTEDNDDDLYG
compound,measurement,setting,value
"CC(C)CN(CCCN1CCN(CCCN2CCc3[nH]c4ccc(F)cc4c3C2)CC1)CC(C)C [Compound 3.1d, N,N-diisobutyl-3-(4-(3-(8-fluoro-1,3,4,5-tetrahydro-1H-pyrido[4,3-b]indol-2-yl)propyl)piperazin-1-yl)propylamine]",sAPPα (10 μM),sAPPα,166 arbitrary units
same,CC50 at 24 h,[1],15 µM
same,"HIP CTFα (6-12.5 mg/kg), first line","CTFα; hippocampus, 6 mg/kg (first of the two doses in the head)",110
same,"HIP CTFα (6-12.5 mg/kg), second line","CTFα; hippocampus, 12.5 mg/kg (second of the two doses in the head)",115
same,"PFC CTFα (6-12.5 mg/kg), first line","CTFα; prefrontal cortex, 6 mg/kg (first of the two doses in the head)",90
same,"PFC CTFα (6-12.5 mg/kg), second line","CTFα; prefrontal cortex, 12.5 mg/kg (second of the two doses in the head)",90
same,IC50,secreted Aβ1-42,2.1 µM
same,IC50,secreted Aβ1-40,1.2 µM
same,"VCP (competition efficiency, loss of signal compared to the control)",[2],96%
